6 compounds from article PMC7252619 (PLoS ONE, 2020) can be followed below.

Data set [1] in a line: WST-1 cytotoxicity assay on RPMI1788 cells (B-cell line). Format: cell-based, human. As to conditions: human, RPMI1788 cells (B-cell line), mean of 4 independent measures, read-out: Cytotoxicity, WST-1 RPMI 1788 IC 50 (µM) Mean. Background: Tetrazolium dyes change colour on reduction, which living cells bring about.
Description: (§1) Compounds were prepared as 10 mM stock solutions in dimethylsulfoxide (DMSO)and were tested at 50-10-1-0.1-0.01 and 0.001 μM in the 4 assays.
(§2) The human B cell line RPMI1788 (American Type Culture Collection, USA) and the human T cell line Jurkat (European Collection of Cell Cultures, ECACC, England) were maintained in RPMI1640 culture medium (BioWhittaker®, Lonza, Verviers, Belgium) containing 10% foetal calf serum (FCS, HyClone® Thermo Scientific, United Kingdom) and 5 μg/mL gentamicin sulphate (BioWhittaker®, Lonza, Verviers, Belgium) at 37°C and 5% CO2.
(§3) WST-1 assays on RPMI-1788 cells and Jurkat cells were performed as follows: 20 μL of test compound dilution were added to each well containing exponential growing cells and the plates were incubated for 48 h at 37°C, 5% CO2. Untreated cells and positive control (1% triton X-100, for the last 15 min) served as reference for maximum and minimum viability. At the end of incubation 100 μL of supernatant were removed and replaced by 10 μL of WST-1 solution (Cell Proliferation Reagent WST-1, Roche Applied Science).
Data set [2] has as its system human PBMCs (responder cells) with RPMI1788 stimulator cells. Description: Mixed Lymphocyte Reaction (MLR, T cell assay), 3H-thymidine incorporation. Conditions: for IC50: Homo sapiens, RPMI-1788, mean of 4 independent measures, read-out: T-cell efficacy, MLR IC 50 (µM) Mean; for Selectivity Index (SI) MLR/B-cell: ratio of IC50 values. The class given is cell-based. Background: Dividing cells build labelled thymidine or BrdU into new DNA.
Description: In order to test the efficacy and selectivity of the hit compounds on B-cells, 4 assays were performed: B-cell assay, Mixed Lymphocyte Reaction (MLR), WST-1 assay on RPMI1788 cells (B-cell line) and cytotoxicity WST-1 assay on Jurkat cells (T-cell line). Compounds were prepared as 10 mM stock solutions in dimethylsulfoxide (DMSO)and were tested at 50-10-1-0.1-0.01 and 0.001 μM in the 4 assays.
Blood samples of healthy volunteers were collected at the Red Cross of Mechelen, Belgium. Each donor consents to the use of their blood for research purposes. […] The human B cell line RPMI1788 (American Type Culture Collection, USA) and the human T cell line Jurkat (European Collection of Cell Cultures, ECACC, England) were maintained in RPMI1640 culture medium (BioWhittaker®, Lonza, Verviers, Belgium) containing 10% foetal calf serum (FCS, HyClone® Thermo Scientific, United Kingdom) and 5 μg/mL gentamicin sulphate (BioWhittaker®, Lonza, Verviers, Belgium) at 37°C and 5% CO2.
MLR assay (T cell assay): Freshly isolated human PBMCs (responder cells) were resuspended in RPMI1640 medium containing 10% FCS and 5nμg/mL gentamicin sulphate. RPMI1788 cells (stimulator cells) were inactivated by treatment with mitomycin C (Kyowa®, Takeda Belgium, Brussels, Belgium) for 20 min at 37°C, washed and finally suspended in culture medium. An amount of 100 μL of each cell suspension was mixed with 20 μL of diluted compound. The mixed cells were cultured at 37°C for 6 days in 5% CO2. DNA synthesis was assayed by the addition of 10 μCi (methyl-3H) thymidine (Perkin Elmer, Zaventem, Belgium) per well during the last 18 h in culture. Thereafter, the cells were harvested on glass filter paper and the counts per minute determined in a liquid scintillation counter (TopCount, Perkin Elmer, Zaventem, Belgium).

The target in data set [3] is T1, CK1d (Homo sapiens, UniProt P48730).
T1 construct: purchased ReactionBiology
Description: Kinase activity test (ReactionBiology), % enzyme activity relative to DMSO. The class given is biochemical. Conditions: CK1d.

Data set [4] relates to human CD19+ B cells. Kind of data set: B-cell assay: IgG production of ODN2006-stimulated primary B cells (AlphaLISA). Format: cell-based. As to conditions: Homo sapiens, B-cell; for pIC50: 168 h, IgG production, ODN2006 0.1 μM, 7 days, mean of 4 independent experiments, read-out: B-cell IC50.
A short description of data set [5]: WST-1 cytotoxicity assay on Jurkat cells (T-cell line). Format: cell-based, human. Conditions: human, Jurkat cells (T-cell line), mean of 4 independent measures, read-out: Cytotoxicity, WST-1 Jurkat IC 50 (µM) Mean.
Description: as §1, §2, §3
Data set [6] has as its target VEGFR2 (Homo sapiens, UniProt P35968). Kind of data set: Kinase activity test (ReactionBiology), % enzyme activity relative to DMSO. Format: biochemical. Further details: purchased ReactionBiology. Conditions: VEGFR2.
Data set [7] deals with T2, NEK2 (Homo sapiens, UniProt P51955).
T2 construct: purchased ReactionBiology
T2 sequence (P51955 1-445): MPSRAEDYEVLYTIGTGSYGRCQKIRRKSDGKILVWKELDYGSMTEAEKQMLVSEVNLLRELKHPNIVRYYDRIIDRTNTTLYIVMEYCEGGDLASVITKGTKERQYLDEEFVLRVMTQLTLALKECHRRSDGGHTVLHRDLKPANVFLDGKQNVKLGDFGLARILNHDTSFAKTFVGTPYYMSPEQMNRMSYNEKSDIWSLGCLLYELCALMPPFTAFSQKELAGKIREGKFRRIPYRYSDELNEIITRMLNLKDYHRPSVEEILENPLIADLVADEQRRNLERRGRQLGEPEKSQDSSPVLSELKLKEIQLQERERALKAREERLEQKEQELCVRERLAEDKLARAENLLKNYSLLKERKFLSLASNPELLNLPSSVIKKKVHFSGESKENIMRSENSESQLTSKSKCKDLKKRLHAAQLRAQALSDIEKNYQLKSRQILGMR
Described as above. The class given is biochemical.

Data set [8] deals with T3, DAPK1 (Homo sapiens, UniProt P53355).
T3 construct: purchased ReactionBiology
Described as above. The class given is biochemical. As to conditions: DAPK1.

Setting [9] is: 1 uM, Average, read-out: % Enzyme Activity (relative to DMSO controls), Average.
The mark [10] stands for this setting: 1 uM, replicate Data 1, read-out: % Enzyme Activity (relative to DMSO controls), Data 1.
Setting [11] is: 1 uM, replicate Data 2, read-out: % Enzyme Activity (relative to DMSO controls), Data 2.
The mark [12] stands for this setting: 10 uM, Average, read-out: % Enzyme Activity (relative to DMSO controls), Average.
The mark [13] stands for this setting: 10 uM, replicate Data 1, read-out: % Enzyme Activity (relative to DMSO controls), Data 1.
Where [14] appears, read: 10 uM, replicate Data 2, read-out: % Enzyme Activity (relative to DMSO controls), Data 2.
[15] abbreviates: compound 1μM, relative to DMSO controls, read-out: % Enzyme activity at 1μM.
Setting [16] is: compound 10μM, relative to DMSO controls, read-out: % Enzyme activity at 10μM.
[17] abbreviates: read-out: % Enzyme Activity (relative to DMSO controls), Average.
The mark [18] stands for this setting: read-out: % Enzyme Activity (relative to DMSO controls), Data 1.
Setting [19] is: read-out: % Enzyme Activity (relative to DMSO controls), Data 2.
[20] abbreviates: NEK2, 1 uM, Average, read-out: % Enzyme Activity (relative to DMSO controls), Average.
Where [21] appears, read: NEK2, 1 uM, replicate Data 1, read-out: % Enzyme Activity (relative to DMSO controls), Data 1.
Where [22] appears, read: NEK2, 1 uM, replicate Data 2, read-out: % Enzyme Activity (relative to DMSO controls), Data 2.
[23] abbreviates: NEK2, 10 uM, Average, read-out: % Enzyme Activity (relative to DMSO controls), Average.
[24] abbreviates: NEK2, 10 uM, replicate Data 1, read-out: % Enzyme Activity (relative to DMSO controls), Data 1.
Where [25] appears, read: NEK2, 10 uM, replicate Data 2, read-out: % Enzyme Activity (relative to DMSO controls), Data 2.
The mark [26] stands for this setting: NEK2, compound 1μM, relative to DMSO controls, read-out: % Enzyme activity at 1μM.
[27] abbreviates: NEK2, compound 10μM, relative to DMSO controls, read-out: % Enzyme activity at 10μM.

pIC50: −log10 of the molar value. Where two headings read alike, the source gives them in different places.
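Wherever inhibition of the kinase activity (strong/weak) is given: VEGFR2 was one member of a ten-kinase screening panel testing marketed FDA-approved drugs.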

Sequence of VEGFR2 (P35968 20-1356): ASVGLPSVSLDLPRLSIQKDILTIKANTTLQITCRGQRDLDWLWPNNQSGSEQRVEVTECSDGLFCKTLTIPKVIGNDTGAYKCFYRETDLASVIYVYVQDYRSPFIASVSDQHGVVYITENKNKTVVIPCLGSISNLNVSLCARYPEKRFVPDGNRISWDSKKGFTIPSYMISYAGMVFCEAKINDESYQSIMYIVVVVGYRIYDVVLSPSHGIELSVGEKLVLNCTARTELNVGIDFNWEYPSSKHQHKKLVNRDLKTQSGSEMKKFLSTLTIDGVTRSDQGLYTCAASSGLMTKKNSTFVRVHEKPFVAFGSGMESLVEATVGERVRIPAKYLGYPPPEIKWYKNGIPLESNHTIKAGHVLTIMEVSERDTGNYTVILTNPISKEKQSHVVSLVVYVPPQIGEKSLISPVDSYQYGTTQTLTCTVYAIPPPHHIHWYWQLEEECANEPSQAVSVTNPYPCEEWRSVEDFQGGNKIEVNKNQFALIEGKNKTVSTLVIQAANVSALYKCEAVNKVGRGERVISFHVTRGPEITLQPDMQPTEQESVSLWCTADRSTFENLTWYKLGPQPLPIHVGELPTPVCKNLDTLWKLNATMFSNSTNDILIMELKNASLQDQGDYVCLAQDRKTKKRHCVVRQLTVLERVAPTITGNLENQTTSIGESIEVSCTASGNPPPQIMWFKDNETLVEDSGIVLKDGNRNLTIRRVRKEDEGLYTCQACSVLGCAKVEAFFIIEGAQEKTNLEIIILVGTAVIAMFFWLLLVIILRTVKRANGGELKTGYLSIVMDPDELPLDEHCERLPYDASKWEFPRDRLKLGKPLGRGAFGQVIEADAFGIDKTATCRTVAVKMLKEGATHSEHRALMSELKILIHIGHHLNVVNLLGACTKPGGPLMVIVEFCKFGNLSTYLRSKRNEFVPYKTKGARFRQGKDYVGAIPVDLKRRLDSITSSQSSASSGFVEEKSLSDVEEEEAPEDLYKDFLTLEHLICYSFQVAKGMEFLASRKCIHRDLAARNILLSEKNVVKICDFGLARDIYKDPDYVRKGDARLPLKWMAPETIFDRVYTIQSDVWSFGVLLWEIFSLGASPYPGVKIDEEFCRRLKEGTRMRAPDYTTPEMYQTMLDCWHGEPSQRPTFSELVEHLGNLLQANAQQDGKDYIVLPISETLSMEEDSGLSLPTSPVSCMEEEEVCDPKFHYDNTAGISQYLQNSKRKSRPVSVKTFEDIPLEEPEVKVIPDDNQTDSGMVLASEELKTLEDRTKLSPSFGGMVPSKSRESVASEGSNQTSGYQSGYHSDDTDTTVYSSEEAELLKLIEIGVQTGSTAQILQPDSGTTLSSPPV
T1 sequence (P48730 whole entry): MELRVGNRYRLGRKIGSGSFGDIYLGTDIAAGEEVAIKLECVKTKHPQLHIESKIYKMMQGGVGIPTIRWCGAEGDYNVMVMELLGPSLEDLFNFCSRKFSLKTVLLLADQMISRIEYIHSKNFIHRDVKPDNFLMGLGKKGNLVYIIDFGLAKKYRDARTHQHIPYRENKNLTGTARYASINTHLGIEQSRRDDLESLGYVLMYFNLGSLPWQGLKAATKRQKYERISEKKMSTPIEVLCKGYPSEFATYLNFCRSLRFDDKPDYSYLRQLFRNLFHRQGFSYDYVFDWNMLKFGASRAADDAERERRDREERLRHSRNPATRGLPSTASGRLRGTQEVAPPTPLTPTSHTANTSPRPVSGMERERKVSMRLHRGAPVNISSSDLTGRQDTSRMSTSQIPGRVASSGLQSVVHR
T3 sequence (P53355 whole entry): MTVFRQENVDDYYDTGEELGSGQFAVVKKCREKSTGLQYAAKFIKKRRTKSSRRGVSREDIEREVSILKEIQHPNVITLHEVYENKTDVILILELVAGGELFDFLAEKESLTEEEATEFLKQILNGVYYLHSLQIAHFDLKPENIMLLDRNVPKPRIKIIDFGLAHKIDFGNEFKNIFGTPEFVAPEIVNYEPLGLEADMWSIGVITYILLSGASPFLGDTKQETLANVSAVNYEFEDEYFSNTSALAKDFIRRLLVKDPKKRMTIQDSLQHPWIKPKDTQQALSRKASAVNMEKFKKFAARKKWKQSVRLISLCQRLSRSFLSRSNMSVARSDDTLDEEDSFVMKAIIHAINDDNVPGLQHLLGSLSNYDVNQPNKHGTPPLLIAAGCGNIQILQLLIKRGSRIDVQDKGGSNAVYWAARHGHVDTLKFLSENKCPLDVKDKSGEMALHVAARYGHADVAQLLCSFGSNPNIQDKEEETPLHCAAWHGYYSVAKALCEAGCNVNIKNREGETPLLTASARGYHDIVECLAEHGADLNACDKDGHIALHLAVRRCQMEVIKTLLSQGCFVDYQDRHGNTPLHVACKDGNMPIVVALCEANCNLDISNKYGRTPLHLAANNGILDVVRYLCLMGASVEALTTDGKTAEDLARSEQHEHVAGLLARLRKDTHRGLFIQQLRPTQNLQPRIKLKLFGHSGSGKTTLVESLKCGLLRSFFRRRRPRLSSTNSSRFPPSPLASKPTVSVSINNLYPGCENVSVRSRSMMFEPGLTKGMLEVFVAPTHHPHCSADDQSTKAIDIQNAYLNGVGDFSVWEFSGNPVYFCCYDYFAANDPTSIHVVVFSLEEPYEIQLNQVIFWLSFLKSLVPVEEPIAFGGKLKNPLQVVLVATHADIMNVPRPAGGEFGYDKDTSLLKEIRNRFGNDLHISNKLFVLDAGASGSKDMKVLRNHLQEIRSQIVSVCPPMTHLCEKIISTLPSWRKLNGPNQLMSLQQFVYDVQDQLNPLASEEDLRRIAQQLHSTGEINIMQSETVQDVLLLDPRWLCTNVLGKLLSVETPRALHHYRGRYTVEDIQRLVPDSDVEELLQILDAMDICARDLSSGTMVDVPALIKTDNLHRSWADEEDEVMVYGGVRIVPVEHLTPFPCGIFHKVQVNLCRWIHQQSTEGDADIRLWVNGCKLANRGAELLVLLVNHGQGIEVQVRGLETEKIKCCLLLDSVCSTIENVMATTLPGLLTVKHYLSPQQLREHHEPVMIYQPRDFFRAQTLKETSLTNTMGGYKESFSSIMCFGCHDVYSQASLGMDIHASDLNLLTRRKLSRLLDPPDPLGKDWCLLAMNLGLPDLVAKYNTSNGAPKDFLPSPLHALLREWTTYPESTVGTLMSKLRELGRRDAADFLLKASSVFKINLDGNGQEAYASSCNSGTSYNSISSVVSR

For `CCN(CC)Cc1cc(Nc2ccnc3cc(Cl)ccc23)ccc1O` [Amodiaquine, reference compound], the IC50 at 48 h in data set [1] stood at 28.1 µM; in data set [5], 26.2 µM. Further, the IC50 in data set [2] was 9.78 µM. In addition, the “Selectivity Index (SI) MLR/B-cell” value in data set [2] turned out to be 14.73. Also, the remaining activity at 1 µM in data set [3] (setting [9]) is 107%; in data set [3] (setting [10]), 106%; in data set [3] (setting [11]), 108%; in data set [3] (setting [15]), 107%. Also, the remaining activity at 10 µM in data set [3] (setting [12]) was found to be 69.1%; in data set [3] (setting [13]), 70.5%; in data set [3] (setting [14]), 67.6%; in data set [3] (setting [16]) it was 69.1%. For the same compound, the pIC50 (usually −log10 of the IC50, conventionally taken in molar units) in data set [4] was 6.18.

As to `Cc1cc(C#N)cc(C)c1Oc1nc(Nc2ccc(C#N)cc2)nc(N)c1Br` [Etravirine, reference compound], the IC50 at 48 h stood at 8 µM in data set [1] and 30.4 µM in data set [5]. Moreover, the IC50 in data set [2] stood at 7.27 µM. In data set [2], the “Selectivity Index (SI) MLR/B-cell” value is on record as 1.23. The negative logarithm of the IC50 (pIC50) in data set [4] was 5.23. Besides, the remaining activity at 1 µM in data set [6] (setting [9]), in data set [6] (setting [10]), in data set [6] (setting [11]) and in data set [6] (setting [15]) was 108% in each case. The remaining activity at 10 µM was found to be 41.1% in data set [6] (setting [12]), 42.6% in data set [6] (setting [13]), 39.5% in data set [6] (setting [14]) and 41.1% in data set [6] (setting [16]).

`Oc1c(Cl)cc(Cl)c(Cl)c1Cc1c(O)c(Cl)cc(Cl)c1Cl` [Hexachlorophene, reference compound]: the remaining activity at 1 µM in data set [7] (setting [17]) turned out to be 84.9%; in data set [7] (setting [18]), 85.4%; in data set [7] (setting [19]), 84.5%; in data set [7] (read-out: % Enzyme activity at 1μM), 84.9%. Also, the remaining activity at 10 µM was 0.02% in data set [7] (setting [17]), -0.21% in data set [7] (setting [18]), 0.25% in data set [7] (setting [19]) and 0.02% in data set [7] (read-out: % Enzyme activity at 10μM). Further, the IC50 at 48 h in data set [1] came out at 4.2 µM; in data set [5] it was 5.88 µM. In data set [2], the IC50 was determined as 1.42 µM. Moreover, the pIC50 in data set [4] was 5.27.

For `C=CC(=O)N1CCC[C@@H](n2nc(-c3ccc(Oc4ccccc4)cc3)c3c(N)ncnc32)C1` [Ibrutinib, reference compound], the IC50 at 48 h came out at 0.7 µM in data set [1] and 14.7 µM in data set [5]. Besides, the IC50 in data set [2] was 1 µM; in data set [4] (mean of 4 independent measures, read-out: B-cell efficacy, B cell IC 50 (µM) Mean) it was 0.000181 µM. Further, in data set [4], the pIC50 is 9.70. For the same compound, the remaining activity at 1 µM in data set [6] (setting [9]) stood at 19.5%; in data set [6] (setting [10]), 19.6%; in data set [6] (setting [11]), 19.5%; in data set [6] (setting [15]), 19.5%; in data set [8] (setting [9]), 95.6%; in data set [8] (setting [10]), 97.4%. Also, the remaining activity at 1 µM in data set [8] (setting [11]) was 93.8%; in data set [8] (setting [15]) it was 95.6%. For the same compound, the remaining activity at 10 µM in data set [6] (setting [13]) was 1.46%; in data set [6] (setting [14]) it was 1.53%; in data set [8] (setting [12]) it was 23.7%; in data set [8] (setting [13]), 24%; in data set [8] (setting [14]) it was 23.5%; in data set [8] (setting [16]) it was 23.7%. In addition, the “inhibition of the kinase activity (strong/weak)” value in data set [6] (at 10 and 1 μM) is given as “strong (We considered a 50% inhibition of the kinase activity as strong)”.

In the case of `Nc1ccc2cc3ccc(N)cc3nc2c1` [Proflavine, reference compound], the remaining activity at 1 µM in data set [7] (setting [20]), in data set [7] (setting [21]), in data set [7] (setting [22]) and in data set [7] (setting [26]) was 104% in each case. The remaining activity at 10 µM was found to be 51.6% in data set [7] (setting [23]), 49% in data set [7] (setting [24]), 54.1% in data set [7] (setting [25]) and 51.6% in data set [7] (setting [27]). In addition, the results for the IC50 at 48 h in data set [1] and in data set [5] were 3.01 µM and 5 µM, respectively. The IC50 in data set [2] was 4.39 µM. Also, in data set [2], the “Selectivity Index (SI) MLR/B-cell” value came to 7.5. For the same compound, in data set [4], the pIC50 is 6.23.

`N[C@@H](Cc1cc(I)c(Oc2cc(I)c(O)c(I)c2)c(I)c1)C(=O)O` [Thyroxine, reference compound]: the remaining activity at 1 µM is 90.2% in data set [7] (setting [20]); 91.2% in data set [7] (setting [21]); 89.1% in data set [7] (setting [22]); 90.2% in data set [7] (setting [26]); 106% in data set [3] (setting [9]); 106% in data set [3] (setting [10]). Further, the remaining activity at 1 µM in data set [3] (setting [11]) was found to be 106%; in data set [6] (setting [9]) it was 104%; in data set [6] (setting [10]), 106%; in data set [6] (setting [11]), 103%. Also, the remaining activity at 10 µM in data set [7] (setting [23]) stood at 48.1%; in data set [7] (setting [24]) it was 47.1%; in data set [7] (setting [25]) it was 49.1%; in data set [7] (setting [27]) it was 48.1%; in data set [3] (setting [12]) it was 97.2%; in data set [3] (setting [13]), 99.7%. Further, the remaining activity at 10 µM in data set [3] (setting [14]) is 94.7%; in data set [6] (setting [12]) it was 86.6%; in data set [6] (setting [13]), 89.7%; in data set [6] (setting [14]), 83.5%. In addition, the IC50 at 48 h in data set [1] and in data set [5] was more than 50 µM each time. The IC50 in data set [2] is more than 50 µM. For the same compound, in data set [4], the pIC50 is 4.47.
